Earlier results in patent US12337056B2, “Topical compositions and methods” (MARY KAY INC., priority 2018, dated 2025).

Details: HyaClear Solution Presentation, Tri-K Industries, 2016

Substance: Sodium hyaluronate
- skin barrier function: improve skin barrier function
- skin desquamation: reduce skin desquamation
- skin lubricity: increase skin lubricity
- skin moisturization: increase skin moisturization
- skin roughness: reduce skin roughness
